Test results: patent US20200377545A1, “NOVEL ANTI-TUMOR COMPOUND AND APPLICATION THEREOF IN PREPARING ANTI-TUMOR DRUGS” (HANGZHOU XINGAO BIOTECHNOLOGY CO., LTD, priority 2018, published 2020)

Tests used:
Assay type in all cases: in vivo
[1] = tested on: mouse Lewis lung cancer cell line LL/2; assay: Subcutaneous transplanted tumor of mouse Lewis lung cancer cell line LL-2 in mice; conditions: C57 mouse, LL-2 tumor, once every two days for 20 days, cGAMP 5 mg/kg subcutaneous, oxaliplatin 2 mg/kg oral, platinum complexes 6 mg/kg oral; for Mean tumor weight (g): n = 10, mean ± SD; for Mean tumor inhibition rate (%): vs negative control group
Protocol: (§1) Mice are orally administrated, and [cis-Pt(NH3)2(cGAMP)] and the tetravalent platinum complex cis-[Pt(cGAMP)(NH3)2(Cl)(OH)] are both set to be 6 mg/kg in one dose group.
(§2) Positive control: cGAMP, 5 mg/kg in dose (subcutaneous) oxaliplatin, 2 mg/kg in dose (oral)
(§3) Administration routes: control group: cGAMP, 5 mg/kg in dose (subcutaneous)
(§4) Oxaliplatin, 2 mg/kg in dose (oral);
(§5) Immune activator platinum complex, 6 mg/kg in dose (oral)
(§6) Administration volume: 100 μl/animal; number of times of administration: continuous administration for 20 days, once every two days.
(§7) Mouse colorectal cancer cell line CT26, mouse Lewis lung cancer cell line LL/2, human ovarian cancer cell line SK-OV-3, and human melanoma cell line A375, which all purchased from the Cell Bank of the Chinese Academy of Sciences.
(§8) The 5 groups are administered once every two days for 20 consecutive days. 20 days later, the mice are killed and the tumors are weighed. Tumor inhibition rate=[1−mean tumor weight of experimental group/mean tumor weight of group A)]×100%.
(§9) Data is expressed with x±s, and processed with SPSS10.0 software. The significance of the difference between tumor weights of all groups is compared by a one-way ANOVA test. The significance level a=0.05.

[2] = tested on: human ovarian cancer cell line SK-OV-3; assay: Mouse subcutaneous transplanted tumor of human ovarian cancer cell line SK-OV-3; conditions: SK-OV-3 tumor, once every two days for 20 days, cGAMP 5 mg/kg subcutaneous, oxaliplatin 2 mg/kg oral, platinum complexes 6 mg/kg oral; for Mean tumor weight (g): n = 10, mean ± SD; for Mean tumor inhibition rate (%): vs negative control group
Protocol: (§10) BALB/c ordinary mice, male, 18-20 g in weight, 6-8 weeks old, SPF grade, purchased from Shanghai SLAC Laboratory Animal Co., Ltd.[Laboratory Animal Quality Certificate Number: SCXK (Shanghai) 2007-0005].
as §1, §2, §3, §4, §5, §6, §7, §8, §9

[3] = tested on: human melanoma cell line A375; assay: Mouse subcutaneous transplanted tumor of human melanoma cell line A375; conditions: once every two days for 20 days, cGAMP 5 mg/kg subcutaneous, oxaliplatin 2 mg/kg oral, platinum complexes 6 mg/kg oral; for Mean tumor weight (g): n = 10, mean ± SD; for Mean tumor inhibition rate (%): vs negative control group
Protocol: as §10, §1, §2, §3, §4, §5, §6, §7, §8, §9

[4] = tested on: mouse colorectal cancer cell line CT26; assay: Subcutaneous transplanted tumor of mouse colorectal cancer cell CT26 in mice; conditions: for Mean tumor weight (g) / Mean tumor inhibition rate (%): BalB/C mouse, CT26 tumor, once every two days for 20 days, cGAMP 5 mg/kg subcutaneous, oxaliplatin 2 mg/kg oral, platinum complexes 6 mg/kg oral; for Mean tumor weight (g): n = 10, mean ± SD; for Mean tumor inhibition rate (%): vs negative control group; for Inhibition of the growth of subcutaneous transplanted tumors (result in words): summary statement for all four tumor models (Tables 1-4), 20 days after administration, tumor weights significantly lower than negative control (P<0.05, P<0.01)
Protocol: as §10, §1, §2, §3, §4, §5, §6, §7, §8, §9

Compound | Mean tumor weight (g) [1] | Mean tumor inhibition rate (%) [1] [%] | Mean tumor weight (g) [2] | Mean tumor inhibition rate (%) [2] [%] | Mean tumor weight (g) [3] | Mean tumor inhibition rate (%) [3] [%] | Mean tumor weight (g) [4] | Mean tumor inhibition rate (%) [4] [%] | Inhibition of the growth of subcutaneous transplanted tumors (result in words) [4]
Nc1nc2c(ncn2[C@@H]2O[C@@H]3COP(=O)(O)O[C@H]4[C@@H](O)[C@H](n5cnc6c(N)ncnc65)O[C@@H]4COP(=O)(O)O[C@@H]2[C@@H]3O)c(=O)[nH]1 [cGAMP, Cyclic [G(2′,5′)pA(3′,5′)p]] | 0.980 ± 0.214 (g) | 56.6 | 0.997 ± 0.212 (g) | 62.3 | 0.969 ± 0.216 (g) | 63.0 | 0.840 ± 0.218 (g) | 62.8 | obviously inhibit the growth of tumors
cis-[Pt(cGAMP)(NH3)2] [cGAMP-cisplatin] | 0.758 ± 0.226 (g) | 70.4 | 0.789 ± 0.218 (g) | 70.2 | 0.786 ± 0.218 (g) | 70.1 | 0.648 ± 0.216 (g) | 71.3 | obviously inhibit the growth of tumors
O=C1[O][Pt]2([NH][C@@H]3CCCC[C@H]3[NH]2)[O]C1=O [Oxaliplatin, oxaliplatin] | 0.963 ± 0.223 (g) | 62.4 | 0.989 ± 0.215 (g) | 62.6 | 0.989 ± 0.215 (g) | 62.4 | 0.963 ± 0.223 (g) | 57.3 | obviously inhibit the growth of tumors
cis-[Pt(cGAMP)(NH3)2(Cl)(OH)] [cGAMP-tetravalent cisplatin] | 0.784 ± 0.232 (g) | 69.4 | 0.813 ± 0.226 (g) | 69.3 | 0.794 ± 0.224 (g) | 69.8 | 0.689 ± 0.224 (g) | 69.5 | obviously inhibit the growth of tumors
